A compilation of properties of binary mixtures (doi:10.1021/acs.jced.5b00338)

Test: xn = mol fraction of the nth substance listed
Conditions: 100 kPa

O=C1OCCO1 + CC[n+]1ccn(C)c1.O=S(=O)([N-]S(=O)(=O)C(F)(F)F)C(F)(F)F
Conditions | electrical conductivity [S/m] | viscosity [mPa·s]
293.15 K, x1 = 0.33 | 1.02 | –
293.15 K, x1 = 0.5263 | – | 15.1
293.15 K, x1 = 0.53 | 1.24 | –
293.15 K, x1 = 0.7476 | – | 8.1
293.15 K, x1 = 0.75 | 1.57 | –
293.15 K, x1 = 0.82 | 1.52 | –
293.15 K, x1 = 0.87 | 1.44 | –
293.15 K, x1 = 0.91 | 1.33 | –
293.15 K, x1 = 0.95 | 1.03 | –
303.15 K, x1 = 0.8163 | – | 4.1
303.15 K, x1 = 0.9467 | – | 3
313.15 K, x1 = 0.33 | 1.68 | –
313.15 K, x1 = 0.5263 | – | 9
313.15 K, x1 = 0.53 | 1.97 | –
313.15 K, x1 = 0.66 | 2.32 | –
313.15 K, x1 = 0.7476 | – | 4.6
313.15 K, x1 = 0.75 | 2.34 | –
313.15 K, x1 = 0.8163 | – | 3.4
313.15 K, x1 = 0.82 | 2.23 | –
313.15 K, x1 = 0.87 | 2.05 | –
313.15 K, x1 = 0.91 | 1.86 | –
313.15 K, x1 = 0.9467 | – | 2.4
313.15 K, x1 = 0.98 | 0.85 | –
313.15 K, x1 = 1 | – | 1.81
323.15 K, x1 = 0.5263 | – | 7.1
323.15 K, x1 = 0.7476 | – | 3.9
323.15 K, x1 = 0.8163 | – | 2.8
323.15 K, x1 = 0.9467 | – | 2.1
323.15 K, x1 = 1 | – | 1.56
333.15 K, x1 = 0.5263 | – | 5.8
333.15 K, x1 = 0.53 | 2.71 | –
333.15 K, x1 = 0.66 | 3.2 | –
333.15 K, x1 = 0.7476 | – | 3.3
333.15 K, x1 = 0.75 | 3.18 | –
333.15 K, x1 = 0.82 | 2.98 | –
333.15 K, x1 = 0.87 | 2.7 | –
333.15 K, x1 = 0.91 | 2.45 | –
333.15 K, x1 = 0.9467 | – | 1.84
333.15 K, x1 = 0.98 | 1.1 | –
333.15 K, x1 = 1 | – | 1.4
343.15 K, x1 = 0.7476 | – | 2.7
343.15 K, x1 = 0.8163 | – | 1.97
343.15 K, x1 = 0.9467 | – | 1.48
353.15 K, x1 = 0.33 | 3.29 | –
353.15 K, x1 = 0.5263 | – | 4
353.15 K, x1 = 0.53 | 4.04 | –
353.15 K, x1 = 0.7476 | – | 2.3
353.15 K, x1 = 0.75 | 4.43 | –
353.15 K, x1 = 0.8163 | – | 1.74
353.15 K, x1 = 0.87 | 3.59 | –
353.15 K, x1 = 0.91 | 3.01 | –
353.15 K, x1 = 0.95 | 2.29 | –
353.15 K, x1 = 1 | – | 1.07
363.15 K, x1 = 0.5263 | – | 3.4
363.15 K, x1 = 0.7476 | – | 2.03
363.15 K, x1 = 0.9467 | – | 1.2
363.15 K, x1 = 1 | – | 0.96
373.15 K, x1 = 0.7476 | – | 1.83
373.15 K, x1 = 0.8163 | – | 1.4
373.15 K, x1 = 0.9467 | – | 1.08
383.15 K, x1 = 0.5263 | – | 2.7
383.15 K, x1 = 0.8163 | – | 1.29
383.15 K, x1 = 0.9467 | – | 0.97
383.15 K, x1 = 1 | – | 0.74
393.15 K, x1 = 0.5263 | – | 2.4
393.15 K, x1 = 0.8163 | – | 1.19
393.15 K, x1 = 1 | – | 0.71

CC[n+]1ccn(C)c1.O=S(=O)([N-]S(=O)(=O)C(F)(F)F)C(F)(F)F + O=C1OCCO1
x2 = 0
Conditions | electrical conductivity [S/m] | viscosity [mPa·s]
293.15 K | 0.73 | 41.6
298.15 K | 0.9 | 33.9
303.15 K | – | 27.3
313.15 K | 1.29 | 19.1
323.15 K | – | 14.4
333.15 K | 1.94 | 11.3
343.15 K | – | 8.3
353.15 K | 2.73 | 6.8
363.15 K | – | 5.6
373.15 K | – | 4.8
